In the assay the test system is MX-1 breast xenograft, nude mice, tumor weight T/C. Kind of assay: NCI In Vivo Anticancer Drug Screen. Data for tumor model Human Mammary Carcinoma MX-1 Xenograft (intrarenal inoculation) in NU/NU Swiss (nude) mice. The note with it: endpoint: mean tumor weight change, higher = larger tumour. Put shortly:
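Mice carrying the implanted tumor receive either test agent or vehicle. Tumor size or survival is then recorded for both groups. Results are stated as the treated-to-control quotient.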
For orientation: Xenograft models place foreign cells or tissue in a host animal.

The mark [1] stands for this setting: dose: 75.0 mg/kg/injection, schedule: Q04DX003 (sc), vehicle: water.
Where [2] appears, read: dose: 150.0 mg/kg/injection, schedule: Q04DX003 (sc), vehicle: water.
Where [3] appears, read: dose: 100.0 mg/kg/injection, schedule: Q04DX003 (sc), vehicle: water.
The mark [4] stands for this setting: dose: 300.0 mg/kg/injection, schedule: Q04DX003 (sc), vehicle: Klucel (hydroxypropylcellulose) (HPC).

Values joined by “and” are separate entries in the source; they are usually repeats but may differ in a detail not shown here. Equal entries are not always repeated. Inconclusive results are not listed.

As to `CC(C)CCCCCCCCCCCCC(=O)NCC(=O)NC1C(O)C(O)C(Nc2ncnc3nc[nH]c23)OC1C(O)CO` (stereo unspecified), the T/C is 158 % of control (dose: 0.31 mg/kg/injection, schedule: Q01DX010 (sc), vehicle: saline); 194 % of control (dose: 0.4 mg/kg/injection, schedule: Q01DX010 (sc), vehicle: saline); 105 % of control (dose: 0.63 mg/kg/injection, schedule: Q01DX010 (sc), vehicle: saline); 93 % of control (dose: 0.8 mg/kg/injection, schedule: Q01DX010 (sc), vehicle: saline); 80 % of control (dose: 1.25 mg/kg/injection, schedule: Q01DX010 (sc), vehicle: saline); 40 % of control (dose: 1.6 mg/kg/injection, schedule: Q01DX010 (sc), vehicle: saline).
In the case of `CCCC(=O)Oc1ccc(/C=N/NC(N)=S)nc1`, the T/C is 101 % of control (dose: 50.0 mg/kg/injection, schedule: Q01DX010 (sc), vehicle: saline with Tween-80) and 113 % of control (dose: 200.0 mg/kg/injection, schedule: Q01DX010 (sc), vehicle: saline with Tween-80).
Turning to `C[C@]12CC[C@@H]3c4ccc(OC(=O)Cc5ccc(N(CCCl)CCCl)cc5)cc4CC[C@H]3[C@@H]1CC[C@@H]2OC(=O)Cc1ccc(N(CCCl)CCCl)cc1`, the T/C runs as follows: (dose: 200.0 mg/kg/injection, schedule: Q04DX003 (sc), vehicle: saline with Tween-80) 58 % of control; (dose: 400.0 mg/kg/injection, schedule: Q04DX003 (sc), vehicle: saline with Tween-80) 50 % of control; (dose: 800.0 mg/kg/injection, schedule: Q04DX003 (sc), vehicle: saline with Tween-80) 33 % of control; (dose: 1200.0 mg/kg/injection, schedule: Q04DX003 (sc), vehicle: saline with Tween-80) 36 % of control; (dose: 1600.0 mg/kg/injection, schedule: Q04DX003 (sc), vehicle: saline with Tween-80) 7 % of control and 26 % of control; (dose: 2000.0 mg/kg/injection, schedule: Q04DX003 (sc), vehicle: saline with Tween-80) 21 % of control. The T/C (dose: 2400.0 mg/kg/injection, schedule: Q04DX003 (sc), vehicle: saline with Tween-80) was 35 % of control.
As to `COc1cc2cc(c1Cl)N(C)C(=O)CC(OC(=O)C(C)C)C1(C)OC1C(C)C1CC(O)(NC(=O)O1)C(OC)/C=C/C=C(C)C2` (stereo unspecified), the T/C reads like this: (dose: 1.56 micrograms/kg/injection, schedule: Q01DX010 (sc), vehicle: saline + alcohol) 40 % of control; (dose: 3.12 micrograms/kg/injection, schedule: Q01DX010 (sc), vehicle: saline + alcohol) 67 % of control; (dose: 6.25 micrograms/kg/injection, schedule: Q01DX010 (sc), vehicle: saline + alcohol) 53 % of control; (dose: 12.5 micrograms/kg/injection, schedule: Q01DX010 (sc), vehicle: saline + alcohol) 67 % of control.
For the compound `CC(=O)[C@]1(O)Cc2c(O)c3c(c(O)c2[C@@H](OC2CC(N)C(O)C(C)O2)C1)C(=O)c1c(O)cccc1C3=O` (stereo partly specified), the T/C reads like this: (dose: 0.25 mg/kg/injection, schedule: Q01DX010 (sc), vehicle: saline) 167 % of control; (dose: 0.5 mg/kg/injection, schedule: Q01DX010 (sc), vehicle: saline) 68 % of control.
In the case of `COc1ccc(OC)c(Cc2cnc3nc(N)nc(N)c3c2C)c1`, the T/C is, setting by setting: under setting [1], 73 % of control; under setting [2], 56 % of control; (dose: 300.0 mg/kg/injection, schedule: Q04DX003 (sc), vehicle: water) 53 % of control; (dose: 600.0 mg/kg/injection, schedule: Q04DX003 (sc), vehicle: water) 62 % of control.
Take `CCCCCNc1ncnc2c(C)[nH]nc12`: the T/C was 80 % of control (dose: 75.0 mg/kg/injection, schedule: Q04DX003 (ip), vehicle: Klucel (hydroxypropylcellulose) (HPC)) and 112 % of control (dose: 150.0 mg/kg/injection, schedule: Q04DX003 (ip), vehicle: Klucel (hydroxypropylcellulose) (HPC)).
Turning to `CNNCc1ccc(C(=O)NC(C)C)cc1`, the T/C is, setting by setting: (dose: 100.0 mg/kg/injection, schedule: Q01DX010 (sc), vehicle: saline) 57 % of control and 69 % of control; (dose: 400.0 mg/kg/injection, schedule: Q01DX010 (sc), vehicle: saline) 7 % of control.
For `O=C1C(=O)c2ccccc2C(O)=C1CC=C(Cl)Cl`, the T/C (dose: 25.0 mg/kg/injection, schedule: Q01DX010 (sc), vehicle: water) was 68 % of control; the T/C (dose: 50.0 mg/kg/injection, schedule: Q01DX010 (sc), vehicle: water) is 110 % of control; the T/C (dose: 100.0 mg/kg/injection, schedule: Q01DX010 (sc), vehicle: water) is 109 % of control; the T/C (dose: 200.0 mg/kg/injection, schedule: Q01DX010 (sc), vehicle: water) is 106 % of control.
Consider `COc1c(CNC(=O)CCl)cc2[nH]c(C)cc2c1CNC(=O)CCl`, for which the T/C runs as follows: (dose: 250.0 mg/kg/injection, schedule: Q04DX003 (sc), vehicle: Klucel (hydroxypropylcellulose) (HPC)) 100 % of control; (dose: 1000.0 mg/kg/injection, schedule: Q04DX003 (sc), vehicle: Klucel (hydroxypropylcellulose) (HPC)) 55 % of control; (dose: 2000.0 mg/kg/injection, schedule: Q04DX003 (sc), vehicle: Klucel (hydroxypropylcellulose) (HPC)) 58 % of control.
For `COc1cc2c(c(OC)c1OC)-c1ccc(OC)c(=O)cc1[C@@H](NC(=O)CCl)CC2`, the T/C is, setting by setting: (dose: 1.25 mg/kg/injection, schedule: Q04DX003 (sc), vehicle: saline with Tween-80) 90 % of control; (dose: 2.5 mg/kg/injection, schedule: Q04DX003 (sc), vehicle: saline with Tween-80) 64 % of control; (dose: 5.0 mg/kg/injection, schedule: Q04DX003 (sc), vehicle: saline with Tween-80) 21 % of control; (dose: 10.0 mg/kg/injection, schedule: Q04DX003 (sc), vehicle: saline with Tween-80) -92 % of control.
Regarding `CNc1nc(N(C)C)nc(N(C)C)n1`, the T/C (dose: 12.5 mg/kg/injection, schedule: Q04DX003 (sc), vehicle: water) is 59 % of control; the T/C (dose: 25.0 mg/kg/injection, schedule: Q04DX003 (sc), vehicle: water) is 60 % of control; the T/C (dose: 30.0 mg/kg/injection, schedule: Q01DX010 (sc), vehicle: water) was 24 % of control; the T/C (dose: 50.0 mg/kg/injection, schedule: Q04DX003 (sc), vehicle: water) is 34 % of control; the T/C (dose: 60.0 mg/kg/injection, schedule: Q01DX010 (sc), vehicle: water) was 3 % of control; the T/C under setting [3] was 10 % of control. Also, where the note is “dose: 120.0 mg/kg/injection, schedule: Q01DX010 (sc), vehicle: water”, the T/C is -63 % of control.
Regarding `NC(CNC(=O)CBr)C(=O)O` (stereo unspecified), the T/C is 53 % of control (dose: 37.5 mg/kg/injection, schedule: Q04DX003 (sc), vehicle: water); 10 % of control and 17 % of control under setting [1]; 9 % of control under setting [3]; 8 % of control and 13 % of control under setting [2].
As for `CC1=C(O)C(=O)[C@@H]2O[C@@H]2C1=O`, the T/C runs as follows: (dose: 2.35 mg/kg/injection, schedule: Q04DX003 (sc), vehicle: saline) 86 % of control; (dose: 4.69 mg/kg/injection, schedule: Q04DX003 (sc), vehicle: saline) 82 % of control; (dose: 9.38 mg/kg/injection, schedule: Q04DX003 (sc), vehicle: saline) 119 % of control; (dose: 18.75 mg/kg/injection, schedule: Q04DX003 (sc), vehicle: saline) 63 % of control.
On to `Nc1ncn(C2CC(O)C(CO)O2)c(=O)n1` (stereo unspecified), for which the T/C (dose: 0.2 mg/kg/injection, schedule: Q01DX010 (sc), vehicle: saline) was 114 % of control.
For `O=c1s[se]c2ccccc12`, the T/C by setting is: (dose: 150.0 mg/kg/injection, schedule: Q04DX003 (sc), vehicle: Klucel (hydroxypropylcellulose) (HPC)) 55 % of control; under setting [4], 55 % of control.
Turning to `CCC(=O)O[C@H]1CC[C@H]2[C@@H]3CCC4=CC(=O)CC[C@]4(C)[C@H]3CC[C@]12C`, the T/C under setting [4] is 76 % of control; the T/C (dose: 600.0 mg/kg/injection, schedule: Q04DX003 (sc), vehicle: Klucel (hydroxypropylcellulose) (HPC)) is 88 % of control; the T/C (dose: 1200.0 mg/kg/injection, schedule: Q04DX003 (sc), vehicle: Klucel (hydroxypropylcellulose) (HPC)) is 74 % of control; the T/C (dose: 2400.0 mg/kg/injection, schedule: Q04DX003 (sc), vehicle: Klucel (hydroxypropylcellulose) (HPC)) is 115 % of control.
Turning to `CCCC(=O)O.CCCC(=O)O.CCCC(=O)O.CCCC(=O)O.[Rh].[Rh]`, the T/C runs as follows: (dose: 2.0 mg/kg/injection, schedule: Q04DX003 (sc), vehicle: suspension in saline) 99 % of control; (dose: 4.0 mg/kg/injection, schedule: Q04DX003 (sc), vehicle: suspension in saline) 115 % of control; (dose: 8.0 mg/kg/injection, schedule: Q04DX003 (sc), vehicle: suspension in saline) 80 % of control.
With `C/C(=N\NC(=S)N1CC2CCC(CC2)C1)c1cccc(C)n1`, the T/C (dose: 50.0 mg/kg/injection, schedule: Q04DX003 (ip), vehicle: saline with Tween-80) was 79 % of control.
